Experimental data taken from patent US20260226092A1, “COCRYSTALS OF CORTEXOLONE 17-PROPIONATE AND METHODS FOR THEIR PREPARATION” (Farmabios S.p.A., priority 2023, published 2026).
Values after ≈ are worked out from the molar mass of the structure shown. Like-named read-outs stand apart in the source and are kept apart here.

How the values were obtained:
[1] = Kinetic solubility study in aqueous buffers (HPLC of mother liquors); assay type: physicochemical; conditions: for solubility at 30 min: aqueous buffer, thermodynamic from solid, read-out: highest solubility; for Conc 1st duplicate / Conc 2nd duplicate / Conc Average: room temperature
Description: Each sample was analyzed in duplicate. Cocrystals form J and G as well as the crystalline form III were previously grounded with mortar and pestle to reduce the particle size effects. […] At scheduled timing (0.5 h, 1 h, 3 h, 5 h, 24 h), aliquots of approximately 3 ml were withdrawn and filtered. Mother liquors were analyzed in triplicate by HPLC, and their pH values checked by pH me[…]/conductometer, Methron).

[2] = Wettability analysis (contact angle, ultrapure water); assay type: physicochemical; conditions: room temperature
Description: Wettability analysis has been carried out by a contact angle meter (Kyowa Interface Science, made in Japan, model: DMe-211Plus) with FAMAS software for data processing.
The contact angle of cocrystals (Form J and G) and Form III (reference) was evaluated at room temperature using ultrapure water (by MilliQ system). Cocrystals (Form J and G) and Form III were previously grounded with a mortar and pestle to limit the effect of particle sizes. Then, approximately 27 mg of each sample were collected on a glass substrate limited to a Teflon O-ring (6.0 mm diameter) and gently leveled by a spatula. The contact time between the drop and sample was set at 9 s and the aqueous falling volume was 2.0 μl.

In the case of `CCC(=O)O[C@]1(C(=O)CO)CC[C@H]2[C@@H]3CCC4=CC(=O)CC[C@]4(C)[C@H]3CC[C@@]21C` [Form III, cortexolone 17α-propionate], the solubility at 30 min ([1]; acetate buffer, pH 5.1, room temperature, maximum over 0.5-24 h (Form J and G after 1 h, Form III after 30 min)) is reported as 18.07 ± 0.06 µg/mL (≈ 44.9 µM), the “dissolution (in words)” value ([1]; pH 5.1, room temperature) is reported as “faster than the one at pH 6.0” and the “Conc 1st duplicate” value ([1]; pH 5.1 buffer, 30 min) is reported as 18070 ng/mL. For the same molecule, the “Conc 2nd duplicate” value ([1]; pH 5.1 buffer, 30 min) was 18120 ng/mL, the “Conc Average” value ([1]; pH 5.1 buffer, 30 min) was 18070 ng/mL and the “Conc 1st duplicate” value ([1]; pH 5.1 buffer, 1 h) was 10020 ng/mL. The “Conc 2nd duplicate” value ([1]; pH 5.1 buffer, 1 h) was 10000 ng/mL, the “Conc Average” value ([1]; pH 5.1 buffer, 1 h) was 10010 ng/mL and the “Conc 1st duplicate” value ([1]; pH 5.1 buffer, 3 h) was 16960 ng/mL. The “Conc 2nd duplicate” value ([1]; pH 5.1 buffer, 3 h) was 16820 ng/mL, the “Conc Average” value ([1]; pH 5.1 buffer, 3 h) was 16890 ng/mL and the “Conc 1st duplicate” value ([1]; pH 5.1 buffer, 5 h) was 14680 ng/mL. For the same molecule, the “Conc 2nd duplicate” value ([1]; pH 5.1 buffer, 5 h) was 15020 ng/mL, the “Conc Average” value ([1]; pH 5.1 buffer, 5 h) was 14770 ng/mL and the “Conc 1st duplicate” value ([1]; pH 5.1 buffer, 24 h) was 2590 ng/mL. The “Conc 2nd duplicate” value ([1]; pH 5.1 buffer, 24 h) was 2600 ng/mL, the “Conc Average” value ([1]; pH 5.1 buffer, 24 h) was 2600 ng/mL and the “Conc 1st duplicate” value ([1]; pH 6.0 buffer, 30 min) was 4380 ng/mL. For the same molecule, the “Conc 2nd duplicate” value ([1]; pH 6.0 buffer, 30 min) was 4370 ng/mL, the “Conc Average” value ([1]; pH 6.0 buffer, 30 min) was 4380 ng/mL and the “Conc 1st duplicate” value ([1]; pH 6.0 buffer, 1 h) was 3580 ng/mL. For the same molecule, the “Conc 2nd duplicate” value ([1]; pH 6.0 buffer, 1 h) was 3560 ng/mL, the “Conc Average” value ([1]; pH 6.0 buffer, 1 h) was 3570 ng/mL and the “Conc 1st duplicate” value ([1]; pH 6.0 buffer, 3 h) was 11150 ng/mL. For the same molecule, the “Conc 2nd duplicate” value ([1]; pH 6.0 buffer, 3 h) was 10970 ng/mL, the “Conc Average” value ([1]; pH 6.0 buffer, 3 h) was 11060 ng/mL and the “Conc 1st duplicate” value ([1]; pH 6.0 buffer, 5 h) was 1920 ng/mL. For the same molecule, the “Conc 2nd duplicate” value ([1]; pH 6.0 buffer, 5 h) was 1920 ng/mL, the “Conc Average” value ([1]; pH 6.0 buffer, 5 h) was 1920 ng/mL and the “Conc 1st duplicate” value ([1]; pH 6.0 buffer, 24 h) was 4020 ng/mL. The “Conc 2nd duplicate” value ([1]; pH 6.0 buffer, 24 h) was 4030 ng/mL, the “Conc Average” value ([1]; pH 6.0 buffer, 24 h) was 4020 ng/mL and the solubility at 30 min ([1]; phosphate buffer, pH 6.0, room temperature, maximum over 0.5-24 h (Form J and Form III 30 min, Form G after 1 h)) was 15.97 ± 0.04 µg/mL (≈ 39.7 µM). For the same molecule, the “Wettability character (hydrophilic: contact angle <90 degrees; hydrophobic: >90 degrees)” value [2] was “hydrophilic”, the “Contact angle Sample 1” value ([2]; 2.0 μl drop, contact time 9 s) was 76.8 degrees and the “Contact angle Sample 2” value ([2]; 2.0 μl drop, contact time 9 s) was 75.0 degrees. The “Contact angle Sample 3” value ([2]; 2.0 μl drop, contact time 9 s) was 81.2 degrees and the “Contact angle Average” value ([2]; average of samples 1-3) was 77.67 degrees.
